The values below come from article PMC5958115, “A novel small molecule chaperone of rod opsin and its potential therapy for retinal degeneration” (Nature Communications, 2018).

One assay has as its target T1, mouse P23H opsin (Mus musculus, UniProt P15409, P23H).
T1 construct: expressed in transfected cells
In words: High-content imaging analysis of P23H opsin immunostaining in NIH3T3-(P23H opsin/GFP) cells. The class given is cell-based. As to the method:
To characterize the effect of active compounds on the localization of P23H-mutant opsin in mammalian cells, an image-based assay was used with cells immunostained for WT or P23H-mutant opsin protein[18]. Briefly, NIH3T3-(P23H opsin/GFP) or NIH3T3-(WT-opsin/GFP) cells were seeded at 5000 cells per well in a 384-well cell-carrier plate (PerkinElmer) and incubated at 37 °C with 5% CO2 for 2 h. Cells were treated with compounds as described for the β-Gal fragment complementation assay and incubated in assay medium for 24 h. The assay medium then was aspirated, and cells were fixed with 4% paraformaldehyde at 20 µL per well for 20 min at RT. Cells were immunostained in one of two ways: cell membranes were either permeabilized with 0.1% Triton X-100 for 15 min or left intact and then were incubated with 10% goat serum (Life Technologies). To detect opsin on the cell plasma membrane only, intact cells were immunostained with 20 µL per well of 20 µg mL^−1 B6-30 anti-rhodopsin antibody that recognizes the N-terminal epitope on the extracellular side of rhodopsin. To detect total opsin, cells were permeabilized with Triton X-100 and immunostained with 50 µg mL^−1 1D4 anti-rhodopsin antibody specific for the C-terminal epitope on the intracellular side of rhodopsin. Opsin immunostaining was visualized by incubating cells with 5 µg mL^−1 Cy3-conjugated goat anti-mouse IgG antibody. Three washes with phosphate-buffered saline (PBS: 10 mM Na2HPO4, 1.8 mM KH2PO4, pH 7.4, 137 mM NaCl, and 2.7 mM KCl) were performed between each step of incubation with antibody. In the last wash with PBS, DAPI was added to each well at 300 nM. Fluorescence images were obtained with the Operetta High Content Imaging System (PerkinElmer) using a ×20 long objective. Five fields were taken of each well for cell images using three channels for fluorescence: GFP (100 ms), Cy3 (300 ms), and DAPI (50 ms). Images were analyzed with Acapella software from the Columbus data storage and analysis system (PerkinElmer)[18]. For cells immunostained with opsin on the non-permeabilized cell membrane only, an average of total fluorescence intensity of Cy3 per cell was used to quantify opsin in each well of the 384-well plate. For cells immunostained with opsin in permeabilized whole cells, an average ratio of Cy3 intensity on the cell plasma membrane (PM) to that of the entire cell (opsin ratio PM-to-total) was calculated for each well of a 384-well plate to quantify opsin transport to the plasma membrane. The plasma membrane was defined within ± 5% of the cell border.

The target in a further assay is T2, P23H opsin (Mus musculus, UniProt P15409, P23H).
T2 construct: expressed in transfected cells
In words: Immunoblot of P23H opsin glycosylation in NIH3T3 cell lysates. The class given is cell-based. The arrangement: key to Improved glycosylation: n = no; y = yes. To be noted: for Improved glycosylation: P23H opsin; for effect on glycosylation of P23H opsin (in words): immunoblot, PNGaseF, 10 µM YC-001, 5 µM 9-cis-retinal, 10 µM scriptaid. As to the method:
NIH3T3-(P23H opsin/GFP) or NIH3T3-(WT-opsin/GFP) cells were seeded in a 48-well plate (Corning Costar) at 3.2 × 10^5 cells per well and incubated at 37 °C with 5% CO2 for 2 h. One hundred-µL of assay medium containing a compound at 5× its final concentration was added to each well. The plate was gently shaken for 5 s before further incubation at 37 °C with 5% CO2 for 24 h. The assay medium then was aspirated, and cells were lysed with 100 µL per well PBS containing 0.1% Triton X-100 and complete protease inhibitor cocktail (Roche, Basel, Switzerland) followed by sonication for 3 s. Protein concentrations were determined with the Bradford assay. For PNGaseF catalyzed deglycosylation, 3 µL of PNGaseF (1500 U, NEB) was added to the cell lysate and the mixture was incubated at room temperature for 1 h before immunoblotting. For NIH3T3-(P23H opsin/GFP) cells, 15 µg of total protein were loaded per well onto an SDS-polyacrylamide gel; whereas for NIH3T3-(WT-opsin/GFP) cells, 5 µg of total protein was loaded per well. Opsin protein was immunostained with 0.2 μg mL^−1 horseradish peroxidase-conjugated 1D4 anti-rhodopsin antibody. Band intensities were measured with ImageJ software (http://imagej.nih.gov/ij/; National the Institutes of Health, Bethesda, MD, USA) and normalized to a glyceraldehyde 3-phosphate dehydrogenase (GAPDH) loading control. Full scans of immunoblotted membranes are shown in Supplementary Fig. 8.

A further assay concerns the target T3, bovine opsin (Bos taurus, UniProt P02699).
T3 construct: ROS membranes were isolated from bovine retinas under dim red light; from tissue; host or cells: bovine retina, rod outer segment (ROS) disc membranes, bleached with hydroxylamine
In words: Ligand-binding assay by Trp fluorescence quenching, opsin in ROS disc membranes. To be noted: 20 °C, mean of three biological repeats ± s.d.; for EC50: read-out: EC50 of Trp fluorescence quenching at 330 nm (ΔF/F0). The procedure: ROS membranes were isolated from bovine retinas under dim red light. To remove membrane associated proteins, ROS membranes were washed with a hypotonic buffer composed of 5 mM bis-tris propane (BTP) and 1 mM EDTA, pH 7.5, followed by gentle homogenization with subsequent centrifugation at 25,000×g for 30 min. This procedure was repeated four times. The final membrane pellet was suspended in 10 mM sodium phosphate buffer, pH 7.0, and 50 mM hydroxylamine to a 3 mg mL^−1 concentration of rhodopsin, placed on ice and illuminated with a 150 Watt bulb for 30 min. Membranes were pelleted by centrifugation at 16,000×g for 5 min and then washed four times with 10 mM sodium phosphate buffer, pH 7.0, and 2% bovine serum albumin followed by 4 washes with 10 mM sodium phosphate buffer, pH 7.0, and two washes with 20 mM BTP, pH 7.5, and 100 mM NaCl. The concentration of opsin was measured with a UV–visible spectrophotometer and quantified using the absorption coefficient ε280 nm = 81,200 M^−1 cm^−1[64].
Emission spectra were recorded with a PerkinElmer L55 Luminescence Spectrophotometer at 20 °C between 300 and 450 nm after excitation at 295 nm, with excitation and emission slit bands set at 5 and 10 nm, respectively. Changes in Trp fluorescence (ΔF/F0; where ΔF is the difference between the initial Trp fluorescence recorded at 330 nm (F0) and Trp fluorescence recorded at 330 nm at a specified YC-001 concentration) were plotted as a function of the ligand concentration. Binding curves were fitted by the Hill function using Origin software for each compound and the EC50 was calculated. All experimental data were corrected for background and self-absorption of excitation and emission light (inner filter effect).

[1] abbreviates: cell-surface immunostaining, non-permeabilized, Fig. 2j, read-out: EC50, opsin on the plasma membrane (Opsin INT).
Setting [2] is: ratio of P23H rod opsin fluorescence on plasma membrane to whole cell.
The mark [3] stands for this setting: ratio of P23H rod opsin fluorescence on plasma membrane to whole cell, read-out: Immunostaining HCS MEM-Total ratio EC50.

Structures are written as SMILES. Like-named read-outs stand apart in the source and are kept apart here.

T3 sequence (P02699 whole entry): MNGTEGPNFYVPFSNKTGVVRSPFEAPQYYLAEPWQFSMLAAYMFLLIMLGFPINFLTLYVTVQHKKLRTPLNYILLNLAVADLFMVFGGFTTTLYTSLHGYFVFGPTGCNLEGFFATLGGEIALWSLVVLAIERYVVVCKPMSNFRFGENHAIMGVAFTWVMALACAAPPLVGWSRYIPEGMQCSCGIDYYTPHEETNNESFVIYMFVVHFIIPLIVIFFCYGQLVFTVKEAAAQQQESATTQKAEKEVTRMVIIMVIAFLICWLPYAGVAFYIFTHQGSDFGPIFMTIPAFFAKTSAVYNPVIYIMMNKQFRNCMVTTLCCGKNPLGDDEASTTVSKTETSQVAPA

Take `CC1=C(/C=C/C(C)=C\C=C\C(C)=C\C=O)C(C)(C)CCC1` [9-cis-retinal, reference compound]: on mouse P23H opsin (Fig. 2j), the “A1 (low plateau), Opsin INT” value was found to be 219 and the “A2 (high plateau), Opsin INT” value came out at 275. Also, at mouse P23H opsin (Fig. 2l), the “A1 (low plateau), Opsin ratio PM-to-total” value was found to be 0.167 and the “A2 (high plateau), Opsin ratio PM-to-total” value is listed as 0.186. At mouse P23H opsin (Fig. 2n), the “A1 (low plateau), Opsin ratio ER-to-total” value came out at 0.240 and the “A2 (high plateau), Opsin ratio ER-to-total” value is reported as 0.255. For the same molecule, the EC50 at mouse P23H opsin (setting [1]) stood at 377 nM. Moreover, the “Immunostaining HCS MEM-Total ratio Max (fit)” value on mouse P23H opsin (setting [2]) is recorded as 0.019. At mouse P23H opsin (whole-cell immunostaining, Fig. 2l, read-out: EC50, Opsin ratio PM-to-total), the EC50 turned out to be 1210 nM. Further, on P23H opsin, the Improved glycosylation result is “y” and the “effect on glycosylation of P23H opsin (in words)” value (from here on “effect on glycosylation”) is reported as “improvement of glycosylation”. The EC50 at bovine opsin is 1200 ± 100 nM.
With `O=C(CCCCCN1C(=O)c2cccc3cccc(c23)C1=O)NO` [Scriptaid, reference compound], the “Immunostaining HCS MEM-Total ratio Max (fit)” value on mouse P23H opsin (setting [2]) is listed as 0.070. Also, at mouse P23H opsin (setting [3]), the EC50 was 380 nM. In addition, on P23H opsin, the Improved glycosylation result was “n” and the “effect on glycosylation” value is “does not affect the glycosylation”. The “EC50 of Trp fluorescence quenching at 330 nm (ΔF/F0)” value on bovine opsin is “did not affect Trp fluorescence”.
For `O=C1OCC(c2ccc(Cl)s2)=C1c1cccs1` [YC-001], on mouse P23H opsin (Fig. 2j), the “A1 (low plateau), Opsin INT” value is given as 218 and the “A2 (high plateau), Opsin INT” value is 270. On mouse P23H opsin (Fig. 2l), the “A1 (low plateau), Opsin ratio PM-to-total” value came out at 0.172 and the “A2 (high plateau), Opsin ratio PM-to-total” value is listed as 0.202. In addition, at mouse P23H opsin (Fig. 2n), the “A1 (low plateau), Opsin ratio ER-to-total” value is 0.236 and the “A2 (high plateau), Opsin ratio ER-to-total” value was determined as 0.248. In addition, the EC50 on mouse P23H opsin (setting [1]) worked out at 3220 nM. Further, the “Immunostaining HCS MEM-Total ratio Max (fit)” value on mouse P23H opsin (setting [2]) was found to be 0.030. Also, the EC50 on mouse P23H opsin (setting [3]) came to 2750 nM. Moreover, the EC50 at mouse P23H opsin (whole-cell immunostaining, Fig. 2n, read-out: EC50, Opsin ratio ER-to-total) turned out to be 2140 nM. For the same molecule, at P23H opsin, the Improved glycosylation entry is “y” and the “effect on glycosylation” value was “improvement of glycosylation”. At bovine opsin, the EC50 was found to be 980 ± 50 nM.
